Data: PubChem BioAssay AID330 (DTP/NCI, 2004)
Where “and” joins values, the source holds several entries; their conditions need not be identical. Equal entries are not always repeated. Toxic doses and inconclusive results are not listed.

System: P388 leukemia ip, CD2F1 mice, survival T/C
Test: NCI In Vivo Anticancer Drug Screen. Data for tumor model P388 Leukemia (intraperitoneal) in CD2F1 (CDF1) mice
Details: endpoint: median survival time, higher = longer survival
How it was run: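 Mice carrying the transplanted tumor received test compound or vehicle. Survival was recorded in each group, and the value is the treated-group measurement divided by that of the vehicle-treated control group.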

[1] = dose: 12.5 mg/kg/injection, schedule: Q01DX009 (ip), vehicle: saline with Tween-80
[2] = dose: 25.0 mg/kg/injection, schedule: Q01DX009 (ip), vehicle: saline with Tween-80
[3] = dose: 50.0 mg/kg/injection, schedule: Q01DX009 (ip), vehicle: saline with Tween-80
[4] = dose: 50.0 mg/kg/injection, schedule: Q01DX009 (ip), vehicle: Klucel (hydroxypropylcellulose) (HPC)
[5] = dose: 100.0 mg/kg/injection, schedule: Q01DX009 (ip), vehicle: Klucel (hydroxypropylcellulose) (HPC)
[6] = dose: 200.0 mg/kg/injection, schedule: Q01DX009 (ip), vehicle: Klucel (hydroxypropylcellulose) (HPC)
[7] = dose: 100.0 mg/kg/injection, schedule: Q01DX009 (ip), vehicle: saline with Tween-80
[8] = dose: 200.0 mg/kg/injection, schedule: Q01DX009 (ip), vehicle: saline with Tween-80
[9] = dose: 50.0 mg/kg/injection, schedule: Q01DX009 (ip), vehicle: saline
[10] = dose: 100.0 mg/kg/injection, schedule: Q01DX009 (ip), vehicle: saline
[11] = dose: 200.0 mg/kg/injection, schedule: Q01DX009 (ip), vehicle: saline
[12] = dose: 50.0 mg/kg/injection, schedule: Q01DX005 (ip), vehicle: Klucel (hydroxypropylcellulose) (HPC)
[13] = dose: 100.0 mg/kg/injection, schedule: Q01DX005 (ip), vehicle: Klucel (hydroxypropylcellulose) (HPC)
[14] = dose: 200.0 mg/kg/injection, schedule: Q01DX005 (ip), vehicle: Klucel (hydroxypropylcellulose) (HPC)
[15] = dose: 60.0 mg/kg/injection, schedule: Q01DX005 (ip), vehicle: saline with Tween-80
[16] = dose: 120.0 mg/kg/injection, schedule: Q01DX005 (ip), vehicle: saline with Tween-80
[17] = dose: 240.0 mg/kg/injection, schedule: Q01DX005 (ip), vehicle: saline with Tween-80
[18] = dose: 50.0 mg/kg/injection, schedule: Q01DX005 (ip), vehicle: saline with Tween-80
[19] = dose: 100.0 mg/kg/injection, schedule: Q01DX005 (ip), vehicle: saline with Tween-80
[20] = dose: 200.0 mg/kg/injection, schedule: Q01DX005 (ip), vehicle: saline with Tween-80

[O-][n+]1c(CCl)nc2ccccc2c1-c1ccccc1F
T/C [1]: 103 % of control
T/C [2]: 103 % of control
T/C [3]: 103 % of control

CCn1c(=O)c2[nH]c(Br)nc2n(CCOC)c1=O
T/C [4]: 90 % of control
T/C [5]: 93 % of control
T/C [6]: 104 % of control

CCCCCCCCCCC(N)P(=O)(O)O (centres undefined)
T/C [1]: 104 % of control
T/C [2]: 100 % of control
T/C [3]: 100 % of control

Cc1ccc(S(=O)(=O)O/N=C2/CCC(C)(C)c3ccccc32)cc1
T/C [7]: 90 % of control
T/C [8]: 100 % of control
T/C (dose: 400.0 mg/kg/injection, schedule: Q01DX009 (ip), vehicle: saline with Tween-80): 90 % of control

O=C1C=CC(=O)O1 (tested in a mixture with another compound)
T/C (dose: 6.25 mg/kg/injection, schedule: Q01DX009 (ip), vehicle: saline): 117 % of control
T/C (dose: 12.5 mg/kg/injection, schedule: Q01DX009 (ip), vehicle: saline): 100 % of control
T/C (dose: 25.0 mg/kg/injection, schedule: Q01DX009 (ip), vehicle: saline): 102 % of control and 108 % of control and 89 % of control
T/C (dose: 25.0 mg/kg/injection, schedule: Q04DX003 (ip), vehicle: saline): 120 % of control
T/C [9]: 108 % of control [middle of 4 runs]
T/C [10]: 100 % of control and 108 % of control and 109 % of control
T/C (dose: 150.0 mg/kg/injection, schedule: Q01DX009 (ip), vehicle: saline): 120 % of control
T/C [11]: 108 % of control and 115 % of control and 120 % of control

CC(C)(C)CC(C)(C)C/C=C/CN1C(=O)c2ccccc2S1(=O)=O
T/C [12]: 101 % of control
T/C [13]: 100 % of control
T/C [14]: 108 % of control

COC(=O)/C=C1\SC(OC)(N(C)c2ccccc2)N(C)C1=O (centres undefined)
T/C [15]: 90 % of control
T/C [16]: 98 % of control
T/C [17]: 91 % of control

COc1ccc(C(=O)c2ccccc2)cc1OC
T/C [2]: 100 % of control
T/C [3]: 100 % of control
T/C [7]: 98 % of control
T/C [8]: 98 % of control

O=C(CC(=O)C(F)(F)F)c1cccs1.O=C(CC(=O)C(F)(F)F)c1cccs1.O=C(CC(=O)C(F)(F)F)c1cccs1.[Tb]
T/C [9]: 86 % of control
T/C [10]: 86 % of control
T/C [11]: 89 % of control

CCCCC[C@@H]1CC=C[C@@H](NC(=O)OCc2ccccc2)[C@H]1/C=C/C(=O)CCCCC1OCCO1
T/C (dose: 60.0 mg/kg/injection, schedule: Q01DX005 (ip), vehicle: DMSO): 101 % of control
T/C (dose: 120.0 mg/kg/injection, schedule: Q01DX005 (ip), vehicle: DMSO): 93 % of control
T/C (dose: 240.0 mg/kg/injection, schedule: Q01DX005 (ip), vehicle: DMSO): 98 % of control

CCOc1ccc2cc(S(=O)(=O)O)ccc2c1N
T/C (dose: 100.0 mg/kg/injection, schedule: Q04DX003 (ip), vehicle: saline with Tween-80): 100 % of control
T/C (dose: 200.0 mg/kg/injection, schedule: Q04DX003 (ip), vehicle: saline with Tween-80): 90 % of control
T/C (dose: 400.0 mg/kg/injection, schedule: Q04DX003 (ip), vehicle: saline with Tween-80): 100 % of control

COc1ccc(-c2coc3cc(OC4OC(COC5OCC(O)C(O)C5O)C(O)C(O)C4O)cc(O)c3c2=O)cc1 (centres undefined)
T/C [2]: 103 % of control
T/C [3]: 98 % of control
T/C [7]: 102 % of control

COC(=O)C1CC(O)CC(C(=O)OC)O1 (centres undefined)
T/C (dose: 60.0 mg/kg/injection, schedule: Q01DX005 (ip), vehicle: saline): 96 % of control
T/C (dose: 120.0 mg/kg/injection, schedule: Q01DX005 (ip), vehicle: saline): 90 % of control

CN1CC[S][Sn]([CH2][Sn]2([c]3ccccc3)[S]CCN(C)CC[S]2)([c]2ccccc2)[S]CC1
T/C [12]: 99 % of control
T/C [13]: 101 % of control
T/C [14]: 100 % of control

CN(C)c1nc(N)nc2c1nc(Cl)n2C1OC(CO)C(O)C1O (centres undefined)
T/C [18]: 99 % of control
T/C [19]: 100 % of control
T/C [20]: 100 % of control

C/C=C/C(C#N)O[Si](C)(C)C (centres undefined)
T/C (dose: 3.75 mg/kg/injection, schedule: Q01DX005 (ip), vehicle: saline): 97 % of control
T/C (dose: 7.5 mg/kg/injection, schedule: Q01DX005 (ip), vehicle: saline): 113 % of control
T/C (dose: 15.0 mg/kg/injection, schedule: Q01DX005 (ip), vehicle: saline): 99 % of control

Cc1ccc(S(=O)(=O)/C=C/C(=O)c2ccco2)cc1
T/C (dose: 100.0 mg/kg/injection, schedule: Q04DX002 (ip), vehicle: saline): 108 % of control
T/C (dose: 200.0 mg/kg/injection, schedule: Q04DX002 (ip), vehicle: saline): 112 % of control
T/C (dose: 400.0 mg/kg/injection, schedule: Q04DX002 (ip), vehicle: saline): 100 % of control

NC(Cc1ccccc1)C(=O)CCl (centres undefined)
T/C (dose: 12.5 mg/kg/injection, schedule: Q01DX001 (ip), vehicle: saline): 104 % of control
T/C (dose: 25.0 mg/kg/injection, schedule: Q01DX001 (ip), vehicle: saline): 100 % of control

CCn1c2ccccc2c2c3ncc4cccn4c3ccc21
T/C [15]: 94 % of control
T/C [16]: 98 % of control
T/C [17]: 106 % of control

COc1ccc2c(c1)N=C(NNC1=Nc3cc(OC)ccc3SC1)CS2
T/C (dose: 15.0 mg/kg/injection, schedule: Q01DX005 (ip), vehicle: saline with Tween-80): 113 % of control and 97 % of control
T/C (dose: 30.0 mg/kg/injection, schedule: Q01DX005 (ip), vehicle: saline with Tween-80): 101 % of control and 102 % of control
T/C [15]: 100 % of control and 91 % of control

O=C(CSc1nc(-c2ccccc2)c(-c2ccccc2)o1)N1CCOCC1
T/C (dose: 12.5 mg/kg/injection, schedule: Q01DX009 (ip), vehicle: Klucel (hydroxypropylcellulose) (HPC)): 105 % of control
T/C (dose: 25.0 mg/kg/injection, schedule: Q01DX009 (ip), vehicle: Klucel (hydroxypropylcellulose) (HPC)): 105 % of control
T/C [4]: 106 % of control and 110 % of control
T/C [5]: 107 % of control and 120 % of control
T/C [6]: 110 % of control

Clc1ccccc1C(Nc1cnccn1)Nc1cnccn1
T/C [18]: 120 % of control
T/C [19]: 114 % of control
T/C [20]: 110 % of control
T/C (dose: 400.0 mg/kg/injection, schedule: Q01DX005 (ip), vehicle: saline with Tween-80): 121 % of control

Nc1nc(N)c2nc(CCc3ccc(C(=O)NC(CCC(=O)O)C(=O)O)cc3)cnc2n1 (centres undefined)
T/C (dose: 1.5 mg/kg/injection, schedule: Q01DX009 (ip), vehicle: sodium bicarbonate): 171 % of control
T/C (dose: 1.75 mg/kg/injection, schedule: Q01DX009 (ip), vehicle: sodium bicarbonate): 204 % of control
T/C (dose: 2.0 mg/kg/injection, schedule: Q01DX009 (ip), vehicle: sodium bicarbonate): 214 % of control

O=C(OCC(Cl)(Cl)Cl)N1C2C3OC3C(C3OC32)N1C(=O)OCC(Cl)(Cl)Cl (centres undefined)
T/C (dose: 50.0 mg/kg/injection, schedule: Q01DX009 (ip), vehicle: suspension in saline): 99 % of control
T/C (dose: 100.0 mg/kg/injection, schedule: Q01DX009 (ip), vehicle: suspension in saline): 92 % of control
T/C (dose: 200.0 mg/kg/injection, schedule: Q01DX009 (ip), vehicle: suspension in saline): 94 % of control

CC(C)N(Cc1ccccc1)CC(O)c1ccc(Cl)cc1 (centres undefined)
T/C [1]: 104 % of control
T/C [2]: 108 % of control
T/C [3]: 100 % of control and 108 % of control
T/C [7]: 95 % of control

CC(=O)N1OCCc2ccccc21
T/C [15]: 100 % of control
T/C [16]: 98 % of control
T/C [17]: 98 % of control

CCC(=O)[O][Bi]([c]1ccccc1)[c]1ccccc1
T/C (dose: 25.0 mg/kg/injection, schedule: Q01DX005 (ip), vehicle: Klucel (hydroxypropylcellulose) (HPC)): 99 % of control and 116 % of control
T/C [12]: 111 % of control and 114 % of control and 115 % of control
T/C [13]: 106 % of control and 124 % of control
T/C [14]: 168 % of control

CC(=O)O[C@@H]1[C@@H](O)[C@H]2O[C@@H]3C=C(C)CC[C@]3(CO)[C@]1(C)[C@@]21CO1
T/C (dose: 1.25 mg/kg/injection, schedule: Q01DX009 (ip), vehicle: saline with Tween-80): 110 % of control and 120 % of control
T/C (dose: 2.5 mg/kg/injection, schedule: Q01DX009 (ip), vehicle: saline with Tween-80): 118 % of control and 121 % of control
T/C (dose: 5.0 mg/kg/injection, schedule: Q01DX009 (ip), vehicle: saline with Tween-80): 120 % of control
T/C (dose: 20.0 mg/kg/injection, schedule: Q01DX009 (ip), vehicle: saline with Tween-80): 93 % of control
